Source: publication PMC5563081, “Modulating Protein-Protein Interactions of the Mitotic Polo-like Kinases to Target Mutant KRAS” (Cell Chemical Biology, 2017)

What was measured:
Experiment in all cases: DiscoverX KINOMEscan
Assay type in all cases: binding
Conditions in all cases: read-out: % Control
[1] = target: T1, WEE2 (Homo sapiens, UniProt P0C1S8)
T1 construct: purchased DiscoverX KINOMEscan
Description: (§1) A panel of 55 proteins (comprising 51 human kinases structurally or functionally related to the PLKs, plus the kinase catalytic domains of PLK1, PLK2, PLK3 and PLK4) were selected for testing by DiscoverX using the KINOMEscan assay platform. Compounds were supplied as 40x DMSO stocks and were tested at a final concentration of 50μM for Poloppin and 5μM for Poloppin-II. Binding interactions were reported as percentage of control where lower numbers indicate stronger binding. A cut-off of <35% was applied to report significant binding.

[2] = target: T2, IKBKB (Homo sapiens, UniProt O14920)
T2 construct: purchased DiscoverX KINOMEscan
Description: as §1

[3] = target: T3, BUB1 (Homo sapiens, UniProt O43683)
T3 construct: purchased DiscoverX KINOMEscan
Description: as §1

[4] = target: T4, PLK3 kinase catalytic domain (Homo sapiens, UniProt Q9H4B4)
T4 construct: PLK3 kinase catalytic domain; purchased DiscoverX KINOMEscan
T4 sequence (Q9H4B4 62-314 limits assumed): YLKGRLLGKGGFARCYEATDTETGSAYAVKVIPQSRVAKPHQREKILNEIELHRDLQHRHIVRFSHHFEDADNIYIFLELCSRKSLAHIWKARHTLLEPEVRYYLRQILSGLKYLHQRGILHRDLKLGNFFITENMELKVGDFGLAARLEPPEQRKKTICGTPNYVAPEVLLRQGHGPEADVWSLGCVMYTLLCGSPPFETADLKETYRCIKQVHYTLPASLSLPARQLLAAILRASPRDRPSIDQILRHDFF
Description: as §1

[5] = target: T5, EIF2AK2 (Homo sapiens, UniProt P19525)
T5 construct: purchased DiscoverX KINOMEscan
Description: as §1

[6] = target: T6, TLK2 (Homo sapiens, UniProt Q86UE8)
T6 construct: purchased DiscoverX KINOMEscan
Description: as §1

[7] = target: T7, ULK2 (Homo sapiens, UniProt Q8IYT8)
T7 construct: purchased DiscoverX KINOMEscan
Description: as §1

[8] = target: T8, NEK5 (Homo sapiens, UniProt Q6P3R8)
T8 construct: purchased DiscoverX KINOMEscan
T8 sequence (Q6P3R8 whole entry): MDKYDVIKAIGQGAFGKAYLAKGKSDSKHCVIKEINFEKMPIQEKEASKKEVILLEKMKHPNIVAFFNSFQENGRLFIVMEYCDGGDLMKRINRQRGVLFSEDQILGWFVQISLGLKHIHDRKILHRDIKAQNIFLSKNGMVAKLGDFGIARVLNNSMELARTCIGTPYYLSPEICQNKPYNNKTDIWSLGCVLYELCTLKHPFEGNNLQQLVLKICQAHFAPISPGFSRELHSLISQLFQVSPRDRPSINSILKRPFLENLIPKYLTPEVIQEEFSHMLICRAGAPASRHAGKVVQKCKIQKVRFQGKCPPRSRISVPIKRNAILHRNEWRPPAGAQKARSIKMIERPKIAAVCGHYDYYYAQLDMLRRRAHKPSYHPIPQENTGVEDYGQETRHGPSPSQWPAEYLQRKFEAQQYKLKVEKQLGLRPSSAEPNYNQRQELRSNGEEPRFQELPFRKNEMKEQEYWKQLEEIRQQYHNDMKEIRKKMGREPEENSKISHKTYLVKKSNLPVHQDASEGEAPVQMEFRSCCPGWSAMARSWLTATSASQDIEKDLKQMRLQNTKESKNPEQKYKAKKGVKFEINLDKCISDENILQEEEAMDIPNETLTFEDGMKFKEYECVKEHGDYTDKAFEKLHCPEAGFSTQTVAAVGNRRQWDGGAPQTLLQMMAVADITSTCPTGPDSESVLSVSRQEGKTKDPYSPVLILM
Description: as §1

[9] = target: T9, ULK3 (Homo sapiens, UniProt Q6PHR2)
T9 construct: purchased DiscoverX KINOMEscan
Description: as §1

[10] = target: T10, WNK1 (Homo sapiens, UniProt Q9H4A3)
T10 construct: purchased DiscoverX KINOMEscan
Description: as §1

[11] = target: T11, TLK1 (Homo sapiens, UniProt Q9UKI8)
T11 construct: purchased DiscoverX KINOMEscan
Description: as §1

[12] = target: T12, PLK2 kinase catalytic domain (Homo sapiens, UniProt Q9NYY3)
T12 construct: PLK2 kinase catalytic domain; purchased DiscoverX KINOMEscan
T12 sequence (Q9NYY3 82-334 limits assumed): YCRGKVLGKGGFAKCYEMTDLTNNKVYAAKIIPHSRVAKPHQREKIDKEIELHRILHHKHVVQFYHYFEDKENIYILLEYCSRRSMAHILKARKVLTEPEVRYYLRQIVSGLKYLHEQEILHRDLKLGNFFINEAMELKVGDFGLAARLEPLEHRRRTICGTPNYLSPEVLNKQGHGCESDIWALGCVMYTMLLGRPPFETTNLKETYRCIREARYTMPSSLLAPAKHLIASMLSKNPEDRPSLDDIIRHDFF
Description: as §1

[13] = target: T13, TBK1 (Homo sapiens, UniProt Q9UHD2)
T13 construct: purchased DiscoverX KINOMEscan
Description: as §1

[14] = target: T14, BMP2K (Homo sapiens, UniProt Q9NSY1)
T14 construct: purchased DiscoverX KINOMEscan
Description: as §1

[15] = target: T15, EIF2AK4 (Homo sapiens, UniProt Q9P2K8, S808G)
T15 construct: purchased DiscoverX KINOMEscan
Description: as §1

[16] = target: T16, ULK1 (Homo sapiens, UniProt O75385)
T16 construct: purchased DiscoverX KINOMEscan
Description: as §1

[17] = target: T17, GSG2 (Homo sapiens, UniProt Q8TF76)
T17 construct: purchased DiscoverX KINOMEscan
Description: as §1

[18] = target: T18, CSNK2A1 (Homo sapiens, UniProt P68400)
T18 construct: purchased DiscoverX KINOMEscan
Description: as §1

[19] = target: T19, WNK3 (Homo sapiens, UniProt Q9BYP7)
T19 construct: purchased DiscoverX KINOMEscan
Description: as §1

[20] = target: T20, NEK4 (Homo sapiens, UniProt P51957)
T20 construct: purchased DiscoverX KINOMEscan
Description: as §1

[21] = target: T21, NEK11 (Homo sapiens, UniProt Q8NG66)
T21 construct: purchased DiscoverX KINOMEscan
Description: as §1

[22] = target: T22, WNK4 (Homo sapiens, UniProt Q96J92)
T22 construct: purchased DiscoverX KINOMEscan
Description: as §1

[23] = target: T23, NEK7 (Homo sapiens, UniProt Q8TDX7)
T23 construct: purchased DiscoverX KINOMEscan
Description: as §1

[24] = target: T24, CDK2 (Homo sapiens, UniProt P24941)
T24 construct: purchased DiscoverX KINOMEscan
Description: as §1

[25] = target: T25, WEE1 (Homo sapiens, UniProt P30291)
T25 construct: purchased DiscoverX KINOMEscan
Description: as §1

[26] = target: T26, PLK1 kinase catalytic domain (Homo sapiens, UniProt P53350)
T26 construct: PLK1 kinase catalytic domain; purchased DiscoverX KINOMEscan
Description: as §1

[27] = target: T27, NEK6 (Homo sapiens, UniProt Q9HC98)
T27 construct: purchased DiscoverX KINOMEscan
T27 sequence (Q9HC98 whole entry): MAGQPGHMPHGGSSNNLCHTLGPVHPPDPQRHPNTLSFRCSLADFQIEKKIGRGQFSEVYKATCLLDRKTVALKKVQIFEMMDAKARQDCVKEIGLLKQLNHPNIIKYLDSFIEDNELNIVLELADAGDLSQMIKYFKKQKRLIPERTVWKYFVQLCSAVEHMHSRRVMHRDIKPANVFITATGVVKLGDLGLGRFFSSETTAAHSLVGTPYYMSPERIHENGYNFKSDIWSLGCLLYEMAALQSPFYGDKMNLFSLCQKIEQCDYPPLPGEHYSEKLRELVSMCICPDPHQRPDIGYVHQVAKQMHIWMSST
Description: as §1

[28] = target: T28, NEK1 (Homo sapiens, UniProt Q96PY6)
T28 construct: purchased DiscoverX KINOMEscan
Description: as §1

[29] = target: T29, STK35 (Homo sapiens, UniProt Q8TDR2)
T29 construct: purchased DiscoverX KINOMEscan
Description: as §1

[30] = target: T30, AURKB (Homo sapiens, UniProt Q96GD4)
T30 construct: purchased DiscoverX KINOMEscan
Description: as §1

[31] = target: T31, NEK10 (Homo sapiens, UniProt Q6ZWH5)
T31 construct: purchased DiscoverX KINOMEscan
T31 sequence (Q6ZWH5 whole entry): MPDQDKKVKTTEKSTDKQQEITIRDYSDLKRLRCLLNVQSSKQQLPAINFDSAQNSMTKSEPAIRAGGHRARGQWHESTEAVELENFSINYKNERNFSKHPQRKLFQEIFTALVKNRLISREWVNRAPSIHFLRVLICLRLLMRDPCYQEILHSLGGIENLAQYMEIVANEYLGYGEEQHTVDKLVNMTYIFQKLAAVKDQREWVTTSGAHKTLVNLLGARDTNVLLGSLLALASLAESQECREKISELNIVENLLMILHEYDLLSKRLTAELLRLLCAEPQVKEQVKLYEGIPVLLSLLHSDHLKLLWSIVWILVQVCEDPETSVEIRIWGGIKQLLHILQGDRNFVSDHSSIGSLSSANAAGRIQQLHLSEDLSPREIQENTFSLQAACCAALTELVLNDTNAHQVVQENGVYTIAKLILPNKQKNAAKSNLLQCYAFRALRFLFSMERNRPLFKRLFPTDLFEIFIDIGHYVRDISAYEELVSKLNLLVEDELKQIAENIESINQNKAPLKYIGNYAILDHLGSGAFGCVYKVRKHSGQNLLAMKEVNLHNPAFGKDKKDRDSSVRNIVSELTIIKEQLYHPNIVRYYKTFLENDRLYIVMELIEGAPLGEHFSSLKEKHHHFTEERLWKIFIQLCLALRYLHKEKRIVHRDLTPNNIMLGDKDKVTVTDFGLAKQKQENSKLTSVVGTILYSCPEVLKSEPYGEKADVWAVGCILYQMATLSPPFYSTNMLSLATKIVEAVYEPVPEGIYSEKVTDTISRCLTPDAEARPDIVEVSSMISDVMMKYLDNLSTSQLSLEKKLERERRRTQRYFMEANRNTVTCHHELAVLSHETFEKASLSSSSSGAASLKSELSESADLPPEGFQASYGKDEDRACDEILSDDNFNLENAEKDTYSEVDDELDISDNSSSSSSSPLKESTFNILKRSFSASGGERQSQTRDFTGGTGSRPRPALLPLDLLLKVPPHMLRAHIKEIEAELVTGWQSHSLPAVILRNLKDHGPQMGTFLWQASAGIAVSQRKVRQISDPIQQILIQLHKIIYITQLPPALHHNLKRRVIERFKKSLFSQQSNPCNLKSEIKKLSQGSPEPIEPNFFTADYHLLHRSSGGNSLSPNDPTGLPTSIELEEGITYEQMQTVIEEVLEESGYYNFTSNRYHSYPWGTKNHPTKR
Description: as §1

[32] = target: T32, AURKC (Homo sapiens, UniProt Q9UQB9)
T32 construct: purchased DiscoverX KINOMEscan
Description: as §1

[33] = target: T33, DSTYK (Homo sapiens, UniProt Q6XUX3)
T33 construct: purchased DiscoverX KINOMEscan
Description: as §1

[34] = target: T34, NEK3 (Homo sapiens, UniProt P51956)
T34 construct: purchased DiscoverX KINOMEscan
T34 sequence (P51956 whole entry): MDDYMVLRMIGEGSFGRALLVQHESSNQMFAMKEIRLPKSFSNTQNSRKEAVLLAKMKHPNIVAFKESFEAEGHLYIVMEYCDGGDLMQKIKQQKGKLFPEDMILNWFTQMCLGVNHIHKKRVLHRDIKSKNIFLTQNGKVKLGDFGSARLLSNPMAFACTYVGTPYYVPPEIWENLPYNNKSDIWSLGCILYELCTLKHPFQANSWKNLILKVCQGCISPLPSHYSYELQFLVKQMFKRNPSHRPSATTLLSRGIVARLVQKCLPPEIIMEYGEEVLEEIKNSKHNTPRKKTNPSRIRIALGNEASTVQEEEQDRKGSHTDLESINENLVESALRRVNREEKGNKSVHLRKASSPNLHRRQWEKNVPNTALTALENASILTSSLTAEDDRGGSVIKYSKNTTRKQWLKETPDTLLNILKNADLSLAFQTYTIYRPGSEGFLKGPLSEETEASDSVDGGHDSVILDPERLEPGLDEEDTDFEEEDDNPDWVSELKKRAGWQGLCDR
Description: as §1

[35] = target: T35, IKBKE (Homo sapiens, UniProt Q14164)
T35 construct: purchased DiscoverX KINOMEscan
Description: as §1

[36] = target: T36, PKMYT1 (Homo sapiens, UniProt Q99640)
T36 construct: purchased DiscoverX KINOMEscan
Description: as §1

[37] = target: T37, GAK (Homo sapiens, UniProt O14976)
T37 construct: purchased DiscoverX KINOMEscan
T37 sequence (O14976 whole entry): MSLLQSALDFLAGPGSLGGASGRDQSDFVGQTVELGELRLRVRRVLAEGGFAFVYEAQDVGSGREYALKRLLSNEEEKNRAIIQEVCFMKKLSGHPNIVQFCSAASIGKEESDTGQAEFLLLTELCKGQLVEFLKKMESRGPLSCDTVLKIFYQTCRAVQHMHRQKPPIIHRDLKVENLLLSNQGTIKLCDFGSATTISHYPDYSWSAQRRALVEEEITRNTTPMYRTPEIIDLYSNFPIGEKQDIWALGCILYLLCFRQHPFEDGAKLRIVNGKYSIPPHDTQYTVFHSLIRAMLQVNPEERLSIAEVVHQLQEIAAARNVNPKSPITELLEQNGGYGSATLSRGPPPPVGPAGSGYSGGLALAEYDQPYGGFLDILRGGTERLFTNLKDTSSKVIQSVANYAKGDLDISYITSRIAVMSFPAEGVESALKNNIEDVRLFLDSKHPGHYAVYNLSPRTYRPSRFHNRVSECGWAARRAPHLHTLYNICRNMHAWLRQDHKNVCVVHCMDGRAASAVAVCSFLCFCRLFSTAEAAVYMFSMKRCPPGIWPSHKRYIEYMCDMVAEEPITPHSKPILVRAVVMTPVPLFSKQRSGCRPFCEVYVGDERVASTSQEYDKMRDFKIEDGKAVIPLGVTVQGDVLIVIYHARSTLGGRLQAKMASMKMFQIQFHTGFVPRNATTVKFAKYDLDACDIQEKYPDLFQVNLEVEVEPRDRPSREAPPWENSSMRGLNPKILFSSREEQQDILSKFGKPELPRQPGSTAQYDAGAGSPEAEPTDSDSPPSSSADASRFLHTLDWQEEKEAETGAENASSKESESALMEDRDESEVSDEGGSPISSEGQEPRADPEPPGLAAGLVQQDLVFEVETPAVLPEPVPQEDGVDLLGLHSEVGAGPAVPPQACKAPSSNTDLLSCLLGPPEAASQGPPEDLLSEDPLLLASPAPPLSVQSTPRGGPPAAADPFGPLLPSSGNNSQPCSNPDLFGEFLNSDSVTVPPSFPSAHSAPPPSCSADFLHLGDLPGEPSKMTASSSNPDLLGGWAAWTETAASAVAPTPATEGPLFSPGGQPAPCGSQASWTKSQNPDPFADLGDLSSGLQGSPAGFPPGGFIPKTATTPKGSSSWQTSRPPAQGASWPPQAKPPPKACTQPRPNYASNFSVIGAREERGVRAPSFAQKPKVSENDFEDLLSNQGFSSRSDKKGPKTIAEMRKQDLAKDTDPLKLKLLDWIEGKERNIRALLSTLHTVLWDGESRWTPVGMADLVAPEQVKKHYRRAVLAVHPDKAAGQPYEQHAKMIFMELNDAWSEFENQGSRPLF
Description: as §1

[38] = target: T38, STK16 (Homo sapiens, UniProt O75716)
T38 construct: purchased DiscoverX KINOMEscan
Description: as §1

[39] = target: T39, SgK110 (Homo sapiens, UniProt P0C264)
T39 construct: purchased DiscoverX KINOMEscan
Description: as §1

[40] = target: T40, NEK2 (Homo sapiens, UniProt P51955)
T40 construct: purchased DiscoverX KINOMEscan
Description: as §1

[41] = target: T41, CSNK2A2 (Homo sapiens, UniProt P19784)
T41 construct: purchased DiscoverX KINOMEscan
T41 sequence (P19784 whole entry): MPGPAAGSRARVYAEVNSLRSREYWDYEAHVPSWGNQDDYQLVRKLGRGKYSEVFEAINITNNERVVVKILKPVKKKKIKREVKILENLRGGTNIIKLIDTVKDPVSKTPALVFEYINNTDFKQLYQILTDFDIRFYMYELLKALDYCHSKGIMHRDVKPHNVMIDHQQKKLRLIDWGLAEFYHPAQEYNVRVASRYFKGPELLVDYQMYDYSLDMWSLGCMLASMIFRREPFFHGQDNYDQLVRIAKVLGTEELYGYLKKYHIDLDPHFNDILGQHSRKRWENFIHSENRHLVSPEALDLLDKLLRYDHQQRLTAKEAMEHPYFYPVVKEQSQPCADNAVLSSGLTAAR
Description: as §1

## CN(C)CCNC(=O)c1ccc(-c2ccc(-c3ccc(Cl)cc3)n2-c2ccccc2C(F)(F)F)cc1 [Poloppin-II]
[1]; WEE2, Poloppin-II 5µM, hit <35%
  remaining binding at 5 µM: 92%
[2]; IKBKB, Poloppin-II 5µM, hit <35%
  remaining binding at 5 µM: 100%
[3]; BUB1, Poloppin-II 5µM, hit <35%
  remaining binding at 5 µM: 90%
[4]; PLK3, Poloppin-II 5µM, hit <35%
  remaining binding at 5 µM: 74%
[5]; EIF2AK2, Poloppin-II 5µM, hit <35%
  remaining binding at 5 µM: 90%
[6]; TLK2, Poloppin-II 5µM, hit <35%
  remaining binding at 5 µM: 94%
[7]; ULK2, Poloppin-II 5µM, hit <35%
  remaining binding at 5 µM: 100%
[8]; NEK5, Poloppin-II 5µM, hit <35%
  remaining binding at 5 µM: 99%
[9]; ULK3, Poloppin-II 5µM, hit <35%
  remaining binding at 5 µM: 88%
[10]; WNK1, Poloppin-II 5µM, hit <35%
  remaining binding at 5 µM: 97%
[11]; TLK1, Poloppin-II 5µM, hit <35%
  remaining binding at 5 µM: 99%
[12]; PLK2, Poloppin-II 5µM, hit <35%
  remaining binding at 5 µM: 85%
[13]; TBK1, Poloppin-II 5µM, hit <35%
  remaining binding at 5 µM: 80%
[14]; BMP2K, Poloppin-II 5µM, hit <35%
  remaining binding at 5 µM: 85%
[15]; EIF2AK4, Poloppin-II 5µM, hit <35%
  remaining binding at 5 µM: 97%
[16]; ULK1, Poloppin-II 5µM, hit <35%
  remaining binding at 5 µM: 84%
[17]; GSG2, Poloppin-II 5µM, hit <35%
  remaining binding at 5 µM: 77%
[18]; CSNK2A1, Poloppin-II 5µM, hit <35%
  remaining binding at 5 µM: 96%
[19]; WNK3, Poloppin-II 5µM, hit <35%
  remaining binding at 5 µM: 100%
[20]; NEK4, Poloppin-II 5µM, hit <35%
  remaining binding at 5 µM: 100%
[21]; NEK11, Poloppin-II 5µM, hit <35%
  remaining binding at 5 µM: 100%
[22]; WNK4, Poloppin-II 5µM, hit <35%
  remaining binding at 5 µM: 91%
[23]; NEK7, Poloppin-II 5µM, hit <35%
  remaining binding at 5 µM: 79%
[24]; CDK2, Poloppin-II 5µM, hit <35%
  remaining binding at 5 µM: 89%
[25]; WEE1, Poloppin-II 5µM, hit <35%
  remaining binding at 5 µM: 98%
[26]; PLK1, Poloppin-II 5µM, hit <35%
  remaining binding at 5 µM: 100%
[27]; NEK6, Poloppin-II 5µM, hit <35%
  remaining binding at 5 µM: 99%
[28]; NEK1, Poloppin-II 5µM, hit <35%
  remaining binding at 5 µM: 100%
[29]; STK35, Poloppin-II 5µM, hit <35%
  remaining binding at 5 µM: 71%
[30]; AURKB, Poloppin-II 5µM, hit <35%
  remaining binding at 5 µM: 95%
[31]; NEK10, Poloppin-II 5µM, hit <35%
  remaining binding at 5 µM: 94%
[32]; AURKC, Poloppin-II 5µM, hit <35%
  remaining binding at 5 µM: 85%
[33]; DSTYK, Poloppin-II 5µM, hit <35%
  remaining binding at 5 µM: 75%
[34]; NEK3, Poloppin-II 5µM, hit <35%
  remaining binding at 5 µM: 74%
[35]; IKBKE, Poloppin-II 5µM, hit <35%
  remaining binding at 5 µM: 75%
[36]; PKMYT1, Poloppin-II 5µM, hit <35%
  remaining binding at 5 µM: 100%
[37]; GAK, Poloppin-II 5µM, hit <35%
  remaining binding at 5 µM: 100%
[38]; STK16, Poloppin-II 5µM, hit <35%
  remaining binding at 5 µM: 92%
[39]; SgK110, Poloppin-II 5µM, hit <35%
  remaining binding at 5 µM: 100%
[40]; NEK2, Poloppin-II 5µM, hit <35%
  remaining binding at 5 µM: 94%
[41]; CSNK2A2, Poloppin-II 5µM, hit <35%
  remaining binding at 5 µM: 92%

## O=C(O)CCc1ccc(-c2ccc(Br)cc2)n1-c1ccccc1C(F)(F)F [Poloppin]
[1]
  remaining binding at 50 µM: 86%
[2]
  remaining binding at 50 µM: 100%
[3]
  remaining binding at 50 µM: 99%
[4]
  remaining binding at 50 µM: 83%
[5]
  remaining binding at 50 µM: 69%
[6]
  remaining binding at 50 µM: 90%
[7]
  remaining binding at 50 µM: 100%
[8]
  remaining binding at 50 µM: 83%
[9]
  remaining binding at 50 µM: 94%
[10]
  remaining binding at 50 µM: 100%
[11]
  remaining binding at 50 µM: 100%
[12]
  remaining binding at 50 µM: 78%
[13]
  remaining binding at 50 µM: 75%
[14]
  remaining binding at 50 µM: 68%
[15]
  remaining binding at 50 µM: 100%
[16]
  remaining binding at 50 µM: 84%
[17]
  remaining binding at 50 µM: 100%
[18]
  remaining binding at 50 µM: 87%
[19]
  remaining binding at 50 µM: 100%
[20]
  remaining binding at 50 µM: 100%
[21]
  remaining binding at 50 µM: 100%
[22]
  remaining binding at 50 µM: 100%
[23]
  remaining binding at 50 µM: 68%
[24]
  remaining binding at 50 µM: 84%
[25]
  remaining binding at 50 µM: 99%
[26]
  remaining binding at 50 µM: 100%
[27]
  remaining binding at 50 µM: 96%
[28]
  remaining binding at 50 µM: 57%
[29]
  remaining binding at 50 µM: 100%
[30]
  remaining binding at 50 µM: 87%
[31]
  remaining binding at 50 µM: 98%
[32]
  remaining binding at 50 µM: 81%
[33]
  remaining binding at 50 µM: 49%
[34]
  remaining binding at 50 µM: 72%
[35]
  remaining binding at 50 µM: 55%
[36]
  remaining binding at 50 µM: 98%
[37]
  remaining binding at 50 µM: 100%
[38]
  remaining binding at 50 µM: 81%
[39]
  remaining binding at 50 µM: 94%
[40]
  remaining binding at 50 µM: 95%
[41]
  remaining binding at 50 µM: 84%
